Experimental data from patent US20240228458A1, “PYRIMIDINE DERIVATIVE HAVING PROTEIN KINASE INHIBITORY ACTIVITY, AND THERAPEUTIC PHARMACEUTICAL COMPOSITION COMPRISING SAME” (THERAPEX CO., LTD., priority 2021, published 2024).

What was measured:
Assay type in all cases: cell-based
[1] = tested on: Ba/F3 cells expressing EGFR-wt; experiment: Growth inhibition (GI50) of Ba/F3 cells expressing EGFR-wt, Celltiter glo; conditions: Mus musculus, BaF3, 72 h
Procedure, shortened: (§1)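 Ba/F3 cells carrying the given EGFR variant were seeded at 100,000 cells/ml and, 4 h later, treated with 10-point, 4-fold serial dilutions prepared from a 2 mM stock (0.5% DMSO final). After 72 h at 37 °C and 5% CO2, viable cells were quantified by CellTiter-Glo luminescence to derive GI50.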

[2] = tested on: Ba/F3 cells expressing del19/T790M/C797S (EGFR-DTC); experiment: Growth inhibition (GI50) of Ba/F3 cells expressing del19/T790M/C797S (EGFR-DTC), Celltiter glo; conditions: Mus musculus, BaF3, 72 h
Procedure, shortened: as §1

[3] = tested on: Ba/F3 cells expressing L858R/T790M/C797S (EGFR-LTC); experiment: Growth inhibition (GI50) of Ba/F3 cells expressing L858R/T790M/C797S (EGFR-LTC), Celltiter glo; conditions: Mus musculus, BaF3, 72 h
Procedure, shortened: as §1

[4] = tested on: Ba/F3 cells expressing del19/T790M (EGFR-DT); experiment: Growth inhibition (GI50) of Ba/F3 cells expressing del19/T790M (EGFR-DT), Celltiter glo; conditions: Mus musculus, BaF3, 72 h
Procedure, shortened: as §1

[5] = tested on: Ba/F3 cells expressing L858R/T790M (EGFR-LT); experiment: Growth inhibition (GI50) of Ba/F3 cells expressing L858R/T790M (EGFR-LT), Celltiter glo; conditions: Mus musculus, BaF3, 72 h
Procedure, shortened: as §1

parental Ba/F3 cell line = experiment: Growth inhibition (GI50) of the parental Ba/F3 cell line (not introduced with EGFR variants), Celltiter glo; conditions: Mus musculus, BaF3, 72 h, parental Ba/F3 cells
Procedure, shortened: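 Parental Ba/F3 cells (100,000 cells/ml) were treated with 10-point, 4-fold compound dilutions (0.5% DMSO; top stock 2 mM) for 72 h at 37 °C, 5% CO2. Viability was read by CellTiter-Glo; GI50 is the concentration (μM) giving 50% growth inhibition.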

SMILES	GI50 [1] [nM]	GI50 [2] [nM]	GI50 [3] [nM]	GI50 [4] [nM]	GI50 [5] [nM]	GI50 (parental Ba/F3 cell line) [nM]
CN1CCN(C2CCN(c3ccc4cc(Nc5ncc(Cl)c(Nc6cc7c(cc6NS(C)(=O)=O)CCO7)n5)ccc4n3)CC2)CC1 [Example 223, N-(6-((5-chloro-2-((2-(4-(4-methylpiperazin-1-yl)piperidin-1-yl)quinolin-6-yl)amino)pyrimidin-4-yl)amino)-2,3-dihydrobenzofuran-5-yl)methanesulfonamide]	2000 to 10000	500 to 2000	500 to 2000	100 to 500	100 to 500	2000 to 10000
COc1cc(N2CCC(Nc3ccnn3C)CC2)c(C)cc1Nc1ncc(Cl)c(Nc2cc3c(cc2NS(C)(=O)=O)CCO3)n1 [Example 224, N-(6-((5-chloro-2-((2-methoxy-5-methyl-4-(4-((1-methyl-1H-pyrazol-5-yl)amino)piperidin-1-yl)phenyl)amino)pyrimidin-4-yl)amino)-2,3-dihydrobenzofuran-5-yl)methanesulfonamide]	500 to 2000	25 to 100	25 to 100	100 to 500	25 to 100	100 to 500
COc1cc(N2CCC(N3CCN(C(F)(F)F)CC3)CC2)c(C)cc1Nc1ncc(Cl)c(Nc2cc3c(cc2NS(C)(=O)=O)CCO3)n1 [Example 225, N-(6-((5-chloro-2-((2-methoxy-5-methyl-4-(4-(4-(trifluoromethyl)piperazin-1-yl)piperidin-1-yl)phenyl)amino)pyrimidin-4-yl)amino)-2,3-dihydrobenzofuran-5-yl)methanesulfonamide]	500 to 2000	1 to 25	25 to 100	25 to 100	25 to 100	2000 to 10000
CN1CCN(C2CCN(c3cc(Cl)c(Nc4ncc(Cl)c(Nc5cc(Cl)ccc5N(C)S(C)(=O)=O)n4)cc3Cl)CC2)CC1 [Example 226, N-(4-chloro-2-((5-chloro-2-((2,5-dichloro-4-(4-(4-methylpiperazin-1-yl)piperidin-1-yl)phenyl)amino)pyrimidin-4-yl)amino)phenyl)-N-methylmethanesulfonamide]	100 to 500	25 to 100	25 to 100	25 to 100	25 to 100	500 to 2000
Cc1cc(Nc2ncc(Br)c(Nc3cc(Cl)ccc3N(C)S(C)(=O)=O)n2)c(Cl)cc1N1CCC(N2CCC(N(C)C)C2)CC1 (stereo not drawn) [Example 227, N-(2-((5-bromo-2-((2-chloro-4-(4-(3-(dimethylamino)pyrrolidin-1-yl)piperidin-1-yl)-5-methylphenyl)amino)pyrimidin-4-yl)amino)-4-chlorophenyl)-N-methylmethanesulfonamide]	1 to 25	1 to 25	25 to 100	1 to 25	1 to 25	100 to 500
CN1CCN(C2CCN(c3cc(Cl)c(Nc4ncc(Br)c(Nc5cc(Cl)ccc5N(C)S(C)(=O)=O)n4)cc3Cl)CC2)CC1 [Example 228, N-(2-((5-bromo-2-((2,5-dichloro-4-(4-(4-methylpiperazin-1-yl)piperidin-1-yl)phenyl)amino)pyrimidin-4-yl)amino)-4-chlorophenyl)-N-methylmethanesulfonamide]	100 to 500	1 to 25	25 to 100	25 to 100	1 to 25	100 to 500
COc1ccc(NS(C)(=O)=O)c(Nc2nc(Nc3cc(Cl)c(N4CCC(N5CCCN(C)CC5)CC4)cc3OC)ncc2Cl)c1 [Example 229, N-(2-((5-chloro-2-((5-chloro-2-methoxy-4-(4-(4-methyl-1,4-diazepan-1-yl)piperidin-1-yl)phenyl)amino)pyrimidin-4-yl)amino)-4-methoxyphenyl)methanesulfonamide]	500 to 2000	25 to 100	100 to 500	1 to 25	25 to 100	2000 to 10000
COc1ccc(NS(C)(=O)=O)c(Nc2nc(Nc3cc(C)c(N4CCC(N5CCC(N(C)C)C5)CC4)cc3Cl)ncc2Cl)c1 (stereo not drawn) [Example 230, N-(2-((5-chloro-2-((2-chloro-4-(4-(3-(dimethylamino)pyrrolidin-1-yl)piperidin-1-yl)-5-methylphenyl)amino)pyrimidin-4-yl)amino)-4-methoxyphenyl)methanesulfonamide]	500 to 2000	100 to 500	100 to 500	25 to 100	100 to 500	2000 to 10000
COc1ccc(NS(C)(=O)=O)c(Nc2nc(Nc3ccc(N4CCC(N5CCN(C)CC5)CC4)cc3OC)ncc2Cl)c1 [Example 231, N-(2-((5-chloro-2-((2-methoxy-4-(4-(4-methylpiperazin-1-yl)piperidin-1-yl)phenyl)amino)pyrimidin-4-yl)amino)-4-methoxyphenyl)methanesulfonamide]	2000 to 10000	100 to 500	100 to 500	100 to 500	100 to 500	2000 to 10000
COc1ccc(NS(C)(=O)=O)c(Nc2nc(Nc3cc(C)c(N4CCC(N5CCCC(N(C)C)C5)CC4)cc3OC)ncc2Cl)c1 (stereo not drawn) [Example 232, N-(2-((5-chloro-2-((4-(3-(dimethylamino)-[1,4′-bipiperidin]-1′-yl)-2-methoxy-5-methylphenyl)amino)pyrimidin-4-yl)amino)-4-methoxyphenyl)methanesulfonamide]	500 to 2000	25 to 100	100 to 500	25 to 100	100 to 500	2000 to 10000
COc1ccc(NS(C)(=O)=O)c(Nc2nc(Nc3cc(C)c(N4CCC(N5CCN(C6CC6)CC5)CC4)cc3OC)ncc2Cl)c1 [Example 233, N-(2-((5-chloro-2-((4-(4-(4-cyclopropylpiperazin-1-yl)piperidin-1-yl)-2-methoxy-5-methylphenyl)amino)pyrimidin-4-yl)amino)-4-methoxyphenyl)methanesulfonamide]	500 to 2000	25 to 100	25 to 100	25 to 100	25 to 100	2000 to 10000
COc1ccc(NS(C)(=O)=O)c(Nc2nc(Nc3cc(C)c(N4CCC(N5CCC(C(F)(F)F)CC5)CC4)cc3OC)ncc2Cl)c1 [Example 234, N-(2-((5-chloro-2-((2-methoxy-5-methyl-4-(4-(trifluoromethyl)-[1,4′-bipiperidin]-1′-yl)phenyl)amino)pyrimidin-4-yl)amino)-4-methoxyphenyl)methanesulfonamide]	2000 to 10000	100 to 500	100 to 500	100 to 500	100 to 500	2000 to 10000
COc1ccc(NS(C)(=O)=O)c(Nc2nc(Nc3cc(C)c(N4CCC(N5CCC(N(C)C)C5)CC4)cc3OC)ncc2Cl)c1 (stereo not drawn) [Example 235, N-(2-((5-chloro-2-((4-(4-(3-(dimethylamino)pyrrolidin-1-yl)piperidin-1-yl)-2-methoxy-5-methylphenyl)amino)pyrimidin-4-yl)amino)-4-methoxyphenyl)methanesulfonamide]	500 to 2000	25 to 100	100 to 500	25 to 100	100 to 500	2000 to 10000
COc1ccc(NS(C)(=O)=O)c(Nc2nc(Nc3cc(C)c(N4CCC(N5CCCC(N(C)C)C5)CC4)cc3Cl)ncc2Cl)c1 (stereo not drawn) [Example 236, N-(2-((5-chloro-2-((2-chloro-4-(3-(dimethylamino)-[1,4′-bipiperidin]-1′-yl)-5-methylphenyl)amino)pyrimidin-4-yl)amino)-4-methoxyphenyl)methanesulfonamide]	2000 to 10000	100 to 500	100 to 500	100 to 500	100 to 500	2000 to 10000
